Counter-ions that a name gives are not always drawn.
What was measured:
[1] = biological target: T1, PDE V (cGMP-specific PDE) (Canis lupus familiaris, UniProt O77746); assay: inhibitory activity on PDE V derived from canine tracheal smooth muscle; assay type: biochemical; details: 1 nM compound; substrate 1.0 μM [3H]cGMP; pH 7.2; 30° C., 10 to 30 minutes; inhibitor dissolved in 1.7% DMSO; read-out: PDE V Inhibitory activity, inhibition rate (%)
T1 construct: PDE V (cGMP-specific PDE) was purified from canine tracheal smooth muscle; from tissue; host or cells: canine tracheal smooth muscle
Protocol: The inhibitory activity on PDE derived from canine tracheal smooth muscle
According to the method of Torphy et al. [Mol. Pharmacol., 37, 206 (1990)], PDE V (cGMP-specific PDE) was purified from canine tracheal smooth muscle.
The activity was measured based on the method of Kincaid et al. [J. D. Corbin et al., Methods Enzymol., 159, 457 (1988), Academic Press, New York]. The measurement was carried out using, as a substrate, 1.0 μM [^3 H]cGMP, and the reaction was carried out in a buffer having the following composition:
50 mM N,N-bis(2-hydroxyethyl)-2-aminoethanesulfonic acid (pH 7.2), 1 mM MgCl2, 0.1 mg/ml soybean trypsin inhibitor
The reaction was started by addition of an enzyme and stopped by addition of hydrochloric acid after 10 to 30 minutes at 30° C. Thereafter, sodium hydroxide was added for neutralization and 5'-GMP was converted into guanosine using 5'-nucleotidase. The reaction solution was subjected to DEAE-Sephadex A-25 column. [^3 H]Guanosine was eluted with distilled water and the radioactivity was measured with a liquid scintillation counter. The inhibitor was dissolved in 1.7% DMSO.

rats = assay: hypotensive effect in anesthetized rats (duodenal administration); assay type: in vivo, male Sprague-Dawley rat; details: rat, i.d., within 30 minutes, average of N = 2
Protocol: The hypotensive effect in rats
After a male Sprague-Dawley rat anesthetized with urethane was fixed in the supine position, a cannula was inserted into trachea and the rat was artificially ventilated under the conditions of a tidal volume of […] and 60 breathes/min. The carotid artery and the duodenum were cannulated for measuring blood pressure and administering a drug, respectively. The drug was dissolved in distilled water and administered duodenally using the above cannula. Mean blood pressure (mBP) until 30 minutes after the drug-administration was measured and the maximum loweing rate (%) from the value before the drug-administration (100%) was determined. The average value of 2 samples was calculated in each dose. No change of mBP was observed during 30 minutes in case of administering distilled water.

SMILES | inhibition at 0.001 µM [1] | Hypotensive activity, Maximum lowering rate (%) of mean blood pressure (mBP) (rats; 0.1 mg/kg) | Hypotensive activity, Maximum lowering rate (%) of mean blood pressure (mBP) (rats; 1 mg/kg) | Hypotensive activity, Maximum lowering rate (%) of mean blood pressure (mBP) (rats; 10 mg/kg)
CCn1c(=S)[nH]c2cc3c(NCc4ccccc4CN4CC=CCC4)ncnc3cc21 [Compound 71, 3-Ethyl-8-[2-(1,2,3,6-tetrahydropyridin-1-ylmethyl)benzylamino]-2,3-dihydro-1H-imidazo[4,5-g]quinazoline-2-thione.2 hydrochloride] | 97% | 16.1% | 22.8% | 23.2%
CCN(CC)CCCOc1cccc(CNc2ncnc3cc4c(cc23)[nH]c(=S)n4CC)c1 [Compound 80, 8-{3-[3-(Diethylamino)propoxy]benzylamino}-3-ethyl-2,3-dihydro-1H-imidazo[4,5-g]quinazoline-2-thione.2 hydrochloride] | 92% |  |  | 
CCn1c(=S)[nH]c2cc3c(NCc4cccc(OCCCN5CCOCC5)c4)ncnc3cc21 [Compound 79, 3-Ethyl-8-[3-(3-morpholinopropoxy)benzylamino]-2,3-dihydro-1H-imidazo[4,5-g]quinazoline-2-thione.2 hydrochloride] | 95% |  |  | 
CCOC(=O)C1CCN(Cc2ccccc2CNc2ncnc3cc4c(cc23)[nH]c(=O)n4CC)CC1 [Compound 76, 3-Ethyl-8-{2-[4-(ethoxycarbonyl)piperidin-1-ylmethyl]benzylamino}-2,3-dihydro-1H-imidazo[4,5-g]quinazolin-2-one.2 hydrochloride] | 88% |  |  | 
CCOC(=O)C1CCN(Cc2ccccc2CNc2ncnc3cc4c(cc23)[nH]c(=S)n4CC)CC1 [Compound 75, 3-Ethyl-8-{2-[4-(ethoxycarbonyl)piperidin-1-ylmethyl]benzylamino}-2,3-dihydro-1H-imidazo[4,5-g]quinazoline-2-thione.2 hydrochloride] | 92% |  |  | 
CCn1c(=O)[nH]c2cc3c(NCc4ccccc4OCCN4CCOCC4)ncnc3cc21 [Compound 21, 3-Ethyl-8-[2-(2-morpholinoethoxy)benzylamino]-2,3-dihydro-1H-imidazo[4,5-g]quinazolin-2-one.2 hydrochloride] | 29% |  |  | 
CCn1c(=S)[nH]c2cc3c(NCc4ccc(CN5CCCCC5)cc4)ncnc3cc21 [Compound 15, 3-Ethyl-8-[4-(piperidinomethyl)benzylamino]-2,3-dihydro-1H-imidazo[4,5-g]quinazoline-2-thione.2 hydrochloride] | 63% |  |  | 
CCn1c(=S)[nH]c2cc3c(NCc4ccc(OCCN5CCOCC5)cc4)ncnc3cc21 [Compound 42, 3-Ethyl-8-[4-(2-morpholinoethoxy)benzylamino]-2,3-dihydro-1H-imidazo[4,5-g]quinazoline-2-thione.2 hydrochloride] | 89% |  |  | 
CCn1c(=S)[nH]c2cc3c(NCc4ccccc4OCCN4CCOCC4)ncnc3cc21 [Compound 29, 3-Ethyl-8-[2-(2-morpholinoethoxy)benzylamino]-2,3-dihydro-1H-imidazo[4,5-g]quinazoline-2-thione.2 hydrochloride] | 91% |  |  | 
CCn1c(=S)[nH]c2cc3c(NCc4ccccc4OCCN4CCN(C)CC4)ncnc3cc21 [Compound 32, 3-Ethyl-8-{2-[2-(4-methylpiperazin-1-yl)ethoxy]benzylamino}-2,3-dihydro-1H-imidazo[4,5-g]quinazoline-2-thione.3 hydrochloride] | 79% |  |  | 
CCn1c(=S)[nH]c2cc3c(NCc4ccccc4CN4CCOCC4)ncnc3cc21 [Compound 4, 3-Ethyl-8-[2-(morpholinomethyl)benzylamino]-2,3-dihydro-1H-imidazo[4,5-g]quinazoline-2-thione.2 hydrochloride] | 97% | 9.0% | 21.5% | 25.1%
CCn1c(=O)[nH]c2cc3c(NCc4ccccc4CN4CCOCC4)ncnc3cc21 [Compound 1, 3-Ethyl-8-[2-(morpholinomethyl)benzylamino]-2,3-dihydro-1H-imidazo[4,5-g]quinazolin-2-one.2 hydrochloride] | 74% |  |  | 
